Data reported in ChEMBL document CHEMBL1148352, “1,2,4-triazolo[4,3-a]quinoxalin-1-one moiety as an attractive scaffold to develop new potent and selective human A3 adenosine receptor antagonists: synthesis, pharmacological, and ligand-receptor modeling studies” (J Med Chem, 2004).

Tests used:
[1] = target: Adenosine receptor A2a (Bos taurus)
Adenosine receptor A3 [2] = target: T1, Adenosine receptor A3 (Homo sapiens, UniProt P0DMS8); assay: biochemical
T1 sequence (P0DMS8 whole entry): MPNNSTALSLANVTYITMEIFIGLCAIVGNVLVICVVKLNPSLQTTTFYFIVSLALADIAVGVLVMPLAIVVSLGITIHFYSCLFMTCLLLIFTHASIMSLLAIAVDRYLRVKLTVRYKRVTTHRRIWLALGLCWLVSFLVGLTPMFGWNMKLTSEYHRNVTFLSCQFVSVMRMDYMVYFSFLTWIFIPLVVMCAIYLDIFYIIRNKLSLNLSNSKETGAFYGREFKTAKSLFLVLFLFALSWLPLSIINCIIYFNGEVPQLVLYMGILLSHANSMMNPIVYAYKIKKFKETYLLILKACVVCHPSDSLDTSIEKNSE
Description: Binding affinity against human adenosine A3 receptor expressed in CHO cells by [125I]AB-MECA displacement.

Adenosine receptor A1 [3] = target: T2, Adenosine receptor A1 (Bos taurus, UniProt P28190)
T2 sequence (P28190 whole entry): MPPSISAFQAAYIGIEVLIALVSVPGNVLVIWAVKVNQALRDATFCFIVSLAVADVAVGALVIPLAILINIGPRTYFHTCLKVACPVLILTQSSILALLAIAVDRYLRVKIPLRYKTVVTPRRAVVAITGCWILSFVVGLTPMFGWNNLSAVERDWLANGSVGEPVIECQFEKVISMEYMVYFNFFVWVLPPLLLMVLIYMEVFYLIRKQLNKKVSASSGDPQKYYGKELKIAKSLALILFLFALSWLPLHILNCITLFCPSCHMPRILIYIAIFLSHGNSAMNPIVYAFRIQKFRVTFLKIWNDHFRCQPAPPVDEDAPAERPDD
Description: Binding affinity against adenosine A1 receptor in bovine brain membranes by [3H]CHA displacement.

[4] = target: T3, Adenosine receptor A3 (Homo sapiens) (UniProt P0DMS8); assay: Percent inhibition against human adenosine A3 receptor expressed in CHO cells using [125I]AB-MECA at 1 uM; format: cell-based
T3 sequence (whole entry): T1 sequence (P0DMS8 whole entry)

[5] = system: Adenosine receptor A2a (Bos taurus); assay: Inhibition of [3H]-CGS- 21680 binding to adenosine A2a receptor of bovine striatal membranes
[6] = target: T4, Adenosine receptor A1 (Bos taurus) (UniProt P28190); assay: Inhibition of [3H]CHA binding to adenosine A1 receptor of bovine brain membranes; format: cell membranes
T4 sequence (whole entry): T2 sequence (P28190 whole entry)

[7] = target: T5, Adenosine receptor A1 (Homo sapiens) (UniProt P30542); assay: Percent inhibition against human adenosine A1 receptor expressed in CHO cells using [3H]CHA at 10 uM; format: cell-based
T5 sequence (whole entry): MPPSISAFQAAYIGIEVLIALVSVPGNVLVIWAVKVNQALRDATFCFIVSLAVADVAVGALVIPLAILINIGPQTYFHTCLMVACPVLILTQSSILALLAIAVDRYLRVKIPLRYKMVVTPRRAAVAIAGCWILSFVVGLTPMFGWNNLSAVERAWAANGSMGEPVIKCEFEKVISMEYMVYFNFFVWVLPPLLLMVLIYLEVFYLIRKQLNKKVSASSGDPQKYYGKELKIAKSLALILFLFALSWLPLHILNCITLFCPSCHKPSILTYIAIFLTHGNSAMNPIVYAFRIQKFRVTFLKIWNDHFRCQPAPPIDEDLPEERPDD

[8] = target: Adenosine receptors; A2a & A3 (Homo sapiens) (UniProt P0DMS8+P29274); assay: Selectivity as ratio of affinity against human adenosine A3 and A2A receptors; format: protein assay
Chain of Adenosine receptors; A2a & A3 (Homo sapiens) (P29274 whole entry, looked up, one chain of several): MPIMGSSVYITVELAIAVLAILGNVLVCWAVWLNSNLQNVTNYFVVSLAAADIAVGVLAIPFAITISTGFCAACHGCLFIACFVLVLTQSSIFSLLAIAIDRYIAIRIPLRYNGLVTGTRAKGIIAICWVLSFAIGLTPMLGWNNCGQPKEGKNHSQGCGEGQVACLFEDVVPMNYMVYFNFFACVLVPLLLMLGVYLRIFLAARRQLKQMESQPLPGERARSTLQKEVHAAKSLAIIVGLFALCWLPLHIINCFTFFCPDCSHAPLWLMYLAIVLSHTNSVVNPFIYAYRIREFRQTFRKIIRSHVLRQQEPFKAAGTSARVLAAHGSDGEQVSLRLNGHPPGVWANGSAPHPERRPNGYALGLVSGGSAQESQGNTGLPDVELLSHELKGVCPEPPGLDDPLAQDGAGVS

[9] = target: Adenosine receptors; A1 & A3 (Homo sapiens) (UniProt P30542+P0DMS8); assay: Selectivity as ratio of affinity against human adenosine A3 and A1 receptors; format: protein assay
Adenosine receptor A3 [10] = target: T1, Adenosine receptor A3; assay: Effective concentration for inhibition of NECA-stimulated [35S]GTP-gamma-S, binding at human adenosine A3 receptor expressed in CHO cells; format: functional, cell-based
Adenosine receptor A1 [11] = target: T6, Adenosine receptor A1 (Homo sapiens, UniProt P30542); assay: biochemical
T6 sequence (P30542 whole entry): T5 sequence (whole entry)
Description: Binding affinity against human adenosine A1 receptor expressed in CHO cells using [3H]CHA

Row | Structure (SMILES) | Ki (Adenosine receptor A3 [2]) [µM] | Ki (Adenosine receptor A1 [3]) [µM] | I [5] [%] | I [6] [%] | other results
1 | Nc1nc2ccccc2n2c(=O)n(-c3ccc(O)cc3)nc12 | 0.0732 | 0.116 |  |  | Ki [1]: 0.08 µM
2 | CCOc1ccc(-n2nc3c(=O)[nH]c4ccccc4n3c2=O)cc1 | 0.175 |  |  |  | 
3 | Nc1nc2c([N+](=O)[O-])cccc2n2c(=O)n(-c3ccc(O)cc3)nc12 |  | 0.446 |  |  | I [4]: 45%; Ki [1]: 1.6 µM
4 | CN(C)c1ccc(-n2nc3c(=O)[nH]c4ccccc4n3c2=O)cc1 | 0.429 | 0.578 | 0 |  | 
5 | COc1ccc(-n2nc3c(=O)[nH]c4c(N)cccc4n3c2=O)cc1 | 0.083 |  | 23 | 16 | 
6 | COc1ccc(-n2nc3c(N)nc4c([N+](=O)[O-])cccc4n3c2=O)cc1 | 0.047 |  | 16.5 | 19 | I [7]: 45%
7 | O=c1[nH]c2ccccc2n2c(=O)n(-c3ccc([N+](=O)[O-])cc3)nc12 | 0.0006 |  | 21 | 19 | Selectivity ratio [8]: > 16600; Selectivity ratio [9]: > 16600; I [7]: 32%; EC50 (Adenosine receptor A3 [10]): 0.0054 µM
8 | COc1ccc(-n2nc3c(N)nc4ccccc4n3c2=O)cc1 |  |  |  |  | Ki (Adenosine receptor A1 [11]): 0.069 µM
9 | CC(=O)Oc1ccc(-n2nc3c(=O)[nH]c4ccccc4n3c2=O)cc1 | 0.0112 | 0.026 |  |  | Ki [1]: 9.7 µM; Ki (Adenosine receptor A1 [11]): 0.32 µM
10 | O=c1[nH]c2c([N+](=O)[O-])cccc2n2c(=O)n(-c3ccc([N+](=O)[O-])cc3)nc12 |  | 0.091 | 0 |  | I [4]: 24%
11 | Nc1cccc2c1[nH]c(=O)c1nn(-c3ccc(O)cc3)c(=O)n12 |  | 0.996 | 36 |  | I [4]: 39%
12 | COc1ccc(-n2nc3c(=O)[nH]c4c([N+](=O)[O-])cccc4n3c2=O)cc1 |  |  | 14 | 25 | I [7]: 0%
13 | Nc1ccc(-n2nc3c(=O)[nH]c4ccccc4n3c2=O)cc1 | 3.6 |  |  |  | 
14 | COc1ccc(-n2nc3c(N)nc4c(N)cccc4n3c2=O)cc1 | 0.022 |  |  | 38 | Ki [1]: 1.05 µM; Ki (Adenosine receptor A1 [11]): 0.186 µM
15 | Nc1cccc2c1nc(N)c1nn(-c3ccc(O)cc3)c(=O)n12 | 0.176 | 0.061 |  |  | Ki [1]: 0.181 µM
16 | CCOc1ccc(-n2nc3c(N)nc4ccccc4n3c2=O)cc1 | 0.203 | 0.537 |  |  | Ki [1]: 13 µM
17 | Nc1ccc(-n2nc3c(N)nc4ccccc4n3c2=O)cc1 | 0.335 | 0.048 |  |  | Ki [1]: 0.0036 µM
18 | CC(=O)Oc1ccc(-n2nc3c(=O)[nH]c4c([N+](=O)[O-])cccc4n3c2=O)cc1 |  |  | 0 | 21.3 | I [4]: 20%
19 | COc1ccc(-n2nc3c(=O)[nH]c4ccccc4n3c2=O)cc1 |  |  |  |  | I [7]: 42%
20 | O=c1[nH]c2ccccc2n2c(=O)n(-c3ccc(O)cc3)nc12 | 0.047 | 0.0306 |  |  | Ki (Adenosine receptor A1 [11]): 0.168 µM
21 | Nc1nc2ccccc2n2c(=O)n(-c3ccc([N+](=O)[O-])cc3)nc12 |  |  | 31 | 11.9 | I [4]: 28%
22 | O=c1[nH]c2c([N+](=O)[O-])cccc2n2c(=O)n(-c3ccc(O)cc3)nc12 |  |  | 4 | 38 | I [4]: 21%
23 | Nc1nc2c([N+](=O)[O-])cccc2n2c(=O)n(-c3ccc([N+](=O)[O-])cc3)nc12 |  | 0.155 | 2.7 |  | I [4]: 30%
24 | Nc1nc2c([N+](=O)[O-])cccc2n2c(=O)n(-c3ccccc3)nc12 | 0.00475 | 0.082 |  |  | Ki (Adenosine receptor A1 [11]): 0.87 µM
